According to US20080166432A1, “Biotherapeutics for Mitigation of Health Disorders from Terminalia Arjuna” (Avestha Gengraine Technologies Pvt. Ltd., priority 2003, published 2008):

How the values were obtained:
[1] = system: Bacillus cereus ATCC-11778; test: Antibacterial assay, agar streak method; assay type: cell-based; design: key: +++: abundant growth; ++: growth; +: less growth; −: no growth; details: B. cereus
Description: (§1) Testing of anti-microbial potential was done against following bacterial strains (Gram negative: Escherichia coli ATCC-10536, Pseudomonas aeruginosa ATCC-9027, Klebsiella pneumoniea ATCC-10031, Bordetella bronchiseptica ATCC-4617; Gram Positive: Staphylococcus aureus ATCC-29737, Streptococcus fecalis ATCC-8043, Micrococcus luteus ATCC-9341, Bacillus subtilis ATCC-6633, Bacillus cereus ATCC-11778, Bacillus pumilus ATCC-14884, Staphylococcus epidermidis ATCC-6358) were selected from the microorganisms given in United states Pharmacopoeia (2000), British Pharmacopoeia (1993) and Indian Pharmacopoeia (1996) for anti-microbial assays.
(§2) A stock of 100 mg/ml of Ethyl acetate, Acetone, Ethanol, Methanol and Water successive extract from Terminalia arjuna bark and direct ethanol and successive water extracts from Terminalia arjuna fruit was dissolved in DMSO. To determine the antibacterial potential extracts at a concentration of 5 mg/ml and 1 mg/ml were added to 30 ml of luke warm Luria Bertaini agar medium. After the medium was solidified, overnight grown 11 bacterial strains mentioned were taken in loop and streaked on the medium. The plates were incubated at 37° C. for 24 hrs after which the bacterial growth was monitored. Suitable controls were maintained with the extracts and the microorganisms. Luria Bertaini agar medium with and without 1.5% DMSO were used as negative control set, Ciprofloxacin (2 μg/ml) served as positive control.

[2] = system: Bacillus pumilus ATCC-14884; test: Antibacterial assay, agar streak method; assay type: cell-based; design: key: +++: abundant growth; ++: growth; +: less growth; −: no growth; details: B. pumilus
Description: as §1, §2

[3] = system: Escherichia coli ATCC-10536; test: Antibacterial assay, agar streak method; assay type: cell-based; design: key: +++: abundant growth; ++: growth; +: less growth; −: no growth; details: E. coli
Description: as §1, §2

[4] = system: Bordetella bronchiseptica ATCC-4617; test: Antibacterial assay, agar streak method; assay type: cell-based; design: key: +++: abundant growth; ++: growth; +: less growth; −: no growth; details: B. bronchiseptica
Description: as §1, §2

[5] = system: Staphylococcus epidermidis ATCC-6358; test: Antibacterial assay, agar streak method; assay type: cell-based; design: key: +++: abundant growth; ++: growth; +: less growth; −: no growth; details: S. epidermidis
Description: as §1, §2

[6] = system: Bacillus subtilis ATCC-6633; test: Antibacterial assay, agar streak method; assay type: cell-based; design: key: +++: abundant growth; ++: growth; +: less growth; −: no growth; details: B. subtilis; LB + Ciprofloxacin 2 μg/ml
Description: as §1, §2

[7] = system: Klebsiella pneumoniea ATCC-10031; test: Antibacterial assay, agar streak method; assay type: cell-based; design: key: +++: abundant growth; ++: growth; +: less growth; −: no growth; details: K. pneumoniea
Description: as §1, §2

[8] = system: Streptococcus fecalis ATCC-8043; test: Antibacterial assay, agar streak method; assay type: cell-based; design: key: +++: abundant growth; ++: growth; +: less growth; −: no growth; details: S. fecalis
Description: as §1, §2

[9] = system: Staphylococcus aureus ATCC-29737; test: Antibacterial assay, agar streak method; assay type: cell-based; design: key: +++: abundant growth; ++: growth; +: less growth; −: no growth; details: S. aureus
Description: as §1, §2

[10] = system: Micrococcus luteus ATCC-9341; test: Antibacterial assay, agar streak method; assay type: cell-based; design: key: +++: abundant growth; ++: growth; +: less growth; −: no growth; details: M. luteus
Description: as §1, §2

[11] = system: Pseudomonas aeruginosa ATCC-9027; test: Antibacterial assay, agar streak method; assay type: cell-based; design: key: +++: abundant growth; ++: growth; +: less growth; −: no growth; details: P. aeruginosa
Description: as §1, §2

[12] = DPPH scavenging effect (antioxidant assay); assay type: physicochemical; details: T. arjuna extracts from different plant parts
Description: This method is based on the reduction of DPPH, a stable free radical. Due to the odd electron of DPPH, it gives a strong absorption maximum at 517 nm by visible spectroscopy (purple color). As the odd electron of the radical becomes paired off in the presence of hydrogen donor, that is, a free-radical scavenging antioxidant, the absorption strength is decreased, and the resulting de-coloration is stoichiometric with respect to the number of electrons captured. This reaction has widely been used to evaluate the anti-oxidative activity of food and plant extracts.
Reactions were performed in 1.25 ml of methanol containing 0.5 mM freshly made DPPH and various amounts of the extract. Reaction mixtures were incubated at 37° C. for 30 min, and the absorbance at 517 nm was measured. This assay was done in triplicate.
Oxidant (DPPH) inhibitory activity (%)={(A517Control−A517 Sample)/A517Control}×100
IC50 is defined as the amount of extract required for 50% inhibition in the levels of free radical. Table 25 gives the IC50 values of Terminalia arjuna bark and fruit extracts.

endothelial cells = details: ascorbate pretreatment; measured as citrulline formation and cGMP accumulation; cited from earlier work
[13] = LB + Ciprofloxacin 2 μg/ml (Table 27)

Compound: O=C(O)c1cn(C2CC2)c2cc(N3CCNCC3)c(F)cc2c1=O [Ciprofloxacin]
- bacterial growth ([1]; LB + Ciprofloxacin 2 μg/ml): −
- bacterial growth [1, 13]: −
- bacterial growth ([2]; LB + Ciprofloxacin 2 μg/ml): −
- bacterial growth [2, 13]: −
- bacterial growth ([3]; LB + Ciprofloxacin 2 μg/ml): −
- bacterial growth [3, 13]: −
- bacterial growth ([4]; LB + Ciprofloxacin 2 μg/ml): −
- bacterial growth [4, 13]: −
- bacterial growth ([5]; LB + Ciprofloxacin 2 μg/ml): −
- bacterial growth [5, 13]: −
- bacterial growth [6]: −
- bacterial growth ([7]; LB + Ciprofloxacin 2 μg/ml): −
- bacterial growth [7, 13]: −
- bacterial growth ([8]; LB + Ciprofloxacin 2 μg/ml): −
- bacterial growth [8, 13]: −
- bacterial growth ([9]; LB + Ciprofloxacin 2 μg/ml): −
- bacterial growth [9, 13]: −
- bacterial growth ([10]; LB + Ciprofloxacin 2 μg/ml): −
- bacterial growth [10, 13]: −
- bacterial growth ([11]; LB + Ciprofloxacin 2 μg/ml): −
- bacterial growth [11, 13]: −

Compound: O=C1O[C@H]([C@@H](O)CO)C(O)=C1O [Ascorbate, ascorbic acid]
- IC50 values of antioxidation potential [12]: 26 µg/mL
- increase of the cellular production of NO (endothelial cells): 3 fold
